The values below come from patent US20260055077A1, “PROTEIN DEGRADATION AGENT” (SUZHOU KINTOR PHARMACEUTICALS, INC., priority 2022, published 2026).

Holding throughout (type): cell-based
One test deals with HL60 cells. In words: Anti-proliferation ability of compounds on HL60 cells (CellTiter-Glo). The settings on record: Homo sapiens, HL-60, 72 h, incubated 3 days, CTG luminescence, IC50 calculated by XLfit. The protocol: • I. Anti-proliferation ability of compounds on HL60 cells • Activity test methods: • 1. Cell plating • HL60 cells in the logarithmic growth phase were counted and plated evenly in a 96-well transparent bottom white plate at 20000 cells per well and […] per well. • 2. Drug addition to cells • A certain amount of the compounds was weighed and diluted with DMSO to a 10 mM stock solution. The culture mediums corresponding to the cells were taken, and the drugs were diluted to the concentration required by the test, shaken gently and mixed evenly. 50 μl of the gradient dilution of the diluted compound was added to each well of the plated cells, and 50 μl of 0.1% DMSO was added to the control group. The plate was shaken gently, mixed evenly and incubated in a cell culture incubator for 3 days. • 3. CTG detection • 3.1 The CellTiter-Glo™ (CTG) reagent was taken in advance from the −20° C. refrigerator and equilibrated to room temperature in the dark. • 3.2 The 96-well plate was taken out and inspected under a microscope for growth situation. • 3.3 The bottom of the 96-well plate was tagged with white paper, and then the plate was wrapped with tin foil paper, shaken at 37° C. at 300 r for 10 mina and mixed evenly. • 3.4 50 ul of CTG detection reagent was added to each well, Luminescence signal was detected using a microplate reader, and the inhibition rate was calculated. IC50 values of the compounds were calculated by XLfit software to evaluate the proliferation inhibitory activity on 11160 cells.

The target in the next test is T1, c-Myc (Homo sapiens, UniProt P01106).
T1 construct: endogenous in cells; host or cells: HL60 (human acute promyelocytic leukemia cells)
In words: Protein degradation experiment (Western blot), c-Myc in HL60 cells. The settings on record: 6 h of drug treatment, FIG. 1, at lower concentration (about 3 μm to 10 nmn). The protocol:
(§1) Cell culture conditions: The cells in the embodiments of the invention were purchased from Shanghai Cell Bank, Chinese Academy of Sciences. Human acute promyelocytic leukemia cells (HL60 cells) were cultured in RPMI-1640 (meilunbio, MA0215)^+20% FBS(manufacturer: Bi, product number: 04-001-1ACS)^+1% penicillin/streptomycin (manufacturer: Hyclone, product number: SH40003.01). The cell culture conditions were 5% CO2 and […]. When the cell coverage reached about 80%, the cells were passaged at a ratio of 1:3.
(§2) 2. Cell drug treatment and protein extraction 2.1 Cell treatment
(§3) The designated cells in the exponential growth phase were digested and plated into a 6-well plate at 1 10^6 cells per well. […]
(§4) By using the BCA protein concentration determination kit (from Thermo Fisher, Cat. No. 23225), the BSA standard determination solution and the supernatant in 2.2 to be tested (the supernatant can be diluted and then tested) were prepared according to the table 2 below. […] The plate was placed at 60′C for 10 min, and then the absorbance at 562 nim was detected. After the reading was recorded, a standard curve was plotted using concentration gradients of the standards, and the absorbance of the samples was substituted to calculate the protein concentration of the samples. […]
For orientation: In western blotting, separated proteins are transferred to a membrane and probed.

In a further test the target is T2, GSPT1 (Homo sapiens, UniProt P15170).
T2 construct: endogenous in cells; host or cells: HL60 (human acute promyelocytic leukemia cells)
In words: Protein degradation experiment (Western blot), GSPT1 in HL60 cells. The settings on record: 6 h of drug treatment, FIG. 1, at lower concentration (about 3 μm to 10 nmn). The procedure:
as §1, §2, §3, §4

Where only a bound is given, the exact number is not on record here.

T1 sequence (P01106 whole entry): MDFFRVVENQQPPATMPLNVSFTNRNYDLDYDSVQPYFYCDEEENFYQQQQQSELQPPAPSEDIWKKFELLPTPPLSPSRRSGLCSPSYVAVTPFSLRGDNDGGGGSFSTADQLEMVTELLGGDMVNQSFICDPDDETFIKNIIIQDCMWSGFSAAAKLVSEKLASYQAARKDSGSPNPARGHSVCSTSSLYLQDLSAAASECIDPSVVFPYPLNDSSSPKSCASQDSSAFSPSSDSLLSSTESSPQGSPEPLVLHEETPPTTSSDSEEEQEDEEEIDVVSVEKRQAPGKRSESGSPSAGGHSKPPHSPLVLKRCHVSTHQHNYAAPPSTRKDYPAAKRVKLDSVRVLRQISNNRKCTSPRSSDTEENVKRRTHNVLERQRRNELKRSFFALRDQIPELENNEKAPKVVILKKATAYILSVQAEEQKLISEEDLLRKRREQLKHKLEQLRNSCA
T2 sequence (P15170 whole entry): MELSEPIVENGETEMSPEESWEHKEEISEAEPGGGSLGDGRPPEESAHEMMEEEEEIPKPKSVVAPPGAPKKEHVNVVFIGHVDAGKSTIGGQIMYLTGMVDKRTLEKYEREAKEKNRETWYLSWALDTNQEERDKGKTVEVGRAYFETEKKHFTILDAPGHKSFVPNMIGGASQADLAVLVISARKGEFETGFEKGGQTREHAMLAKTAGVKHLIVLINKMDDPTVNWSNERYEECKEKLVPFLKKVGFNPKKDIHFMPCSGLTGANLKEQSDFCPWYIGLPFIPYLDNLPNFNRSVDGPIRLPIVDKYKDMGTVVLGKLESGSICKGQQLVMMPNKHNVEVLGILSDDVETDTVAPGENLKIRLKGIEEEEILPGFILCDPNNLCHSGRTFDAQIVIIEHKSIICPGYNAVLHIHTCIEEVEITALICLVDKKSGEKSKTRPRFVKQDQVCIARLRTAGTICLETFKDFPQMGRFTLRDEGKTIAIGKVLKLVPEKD

The IC50 is the concentration that inhibits the measured activity by half. With `Cc1ccc(N2CCN(Cc3ccc(C(=O)NCc4ccc5c(c4)CN(C4CCC(=O)NC4=O)C5=O)c(O)c3)CC2)cc1Cl` (stereo not shown) [KT-020], the IC50 with HL60 cells is 1.36 ± 0.67 nM.

As for `O=C1CCC(N2Cc3cc(NC(=O)CC4CCN(c5ncc(-c6cccc7cccnc67)cc5CO)CC4)ccc3C2=O)C(=O)N1` (stereo not shown) [KT-028], the IC50 in the test with HL60 cells was less than 0.34 nM.

With `O=C1CCC(N2Cc3cc(CNC(=O)c4ccc(CN5CCN(c6ccc(OCCO)c(Cl)c6)CC5)cc4)ccc3C2=O)C(=O)N1` (stereo not shown) [KT-019], the IC50 in the test with HL60 cells is 2.8 ± 0.1 nM.

On to `O=C1CCC(N2Cc3cc(C(=O)NCc4ccc(CN(CCO)CCc5ccc(Cl)c(Cl)c5)cc4)ccc3C2=O)C(=O)N1` (stereo not shown) [KT-002], for which, in the test with HL60 cells, the IC50 is less than 3.04 nM. Also, the “degradation of e-Myc (c-Myc) protein in HL60 cells” value at c-Myc is on record as “completely degrade”. Further, the “degradation of GSPT1 protein in HL60 cells” value on GSPT1 is given as “completely degrade”.

Turning to `O=C1CCC(N2Cc3cc(C(=O)NCc4ccc(CN(CCc5cccc6ccccc56)C(=O)CS)cc4)ccc3C2=O)C(=O)N1` (stereo not shown) [KT-042], the IC50 with HL60 cells was 34 ± 7 nM.

Take `O=C1CCC(N2Cc3cc(C(=O)NCc4ccc(CN(CCO)CCc5cccc6ccccc56)cc4)ccc3C2=O)C(=O)N1` (stereo not shown) [KT-003]: in the test on HL60 cells, the 50% inhibitory concentration (IC50) is 0.71 ± 0.04 nM.

`O=C1CCC(N2Cc3cc(C(=O)NCc4ccc(CN(Cc5ccccc5)C(=O)CO)cc4)ccc3C2=O)C(=O)N1` (stereo not shown) [KT-016]: the IC50 with HL60 cells was 3.04 ± 0.84 nM.

As for `O=C1CCC(N2Cc3cc(NC(=O)CC4CCN(c5ncc(Br)cc5CO)CC4)ccc3C2=O)C(=O)N1` (stereo not shown) [KT-026], in the test on HL60 cells, the IC50 was 23 ± 3 nM.

For the compound `CC(=O)c1ccc(N2CCN(Cc3ccc(C(=O)NCc4ccc5c(c4)CN(C4CCC(=O)NC4=O)C5=O)cc3)CC2)cc1Cl` (stereo not shown) [KT-041], the IC50 with HL60 cells is less than 3.04 nM.

Take `O=C1CCC(N2Cc3cc(C(=O)NCc4ccc(CNCCc5cccc6ccccc56)cc4)ccc3C2=O)C(=O)N1` (stereo not shown) [KT-025]: in the test with HL60 cells, the IC50 was less than 3.04 nM.

As to `Cc1ccc(N2CCN(Cc3ccc(C(=O)NCc4ccc5c(c4)CN(C4CCC(=O)NC4=O)C5=O)cc3)C(CO)C2)cc1Cl` (stereo not shown) [KT-022], the IC50 with HL60 cells was 1.03 ± 0.19 nM.

In the case of `O=C1CCC(N2Cc3cc(CNC(=O)c4ccc(CN5CCN(c6ccc(CO)c(Cl)c6)CC5)cc4)ccc3C2=O)C(=O)N1` (stereo not shown) [KT-018], in the test with HL60 cells, the IC50 was 2.17 ± 0.78 nM.

As for `O=C(Cn1c2ccccc2c2cccnc21)NCc1ccc(CNC(=O)c2ccc3c(c2)CN(C2CCC(=O)NC2=O)C3=O)c(OCCO)c1` (stereo not shown) [KT-006], the IC50 in the test on HL60 cells is 2.19 ± 1.5 nM.

With `CN(CCc1ccccc1)Cc1ccc(C(=O)NCc2ccc3c(c2)CN(C2CCC(=O)NC2=O)C3=O)c(O)c1` (stereo not shown) [KT-034], in the test on HL60 cells, the concentration for half-maximal inhibition (IC50) was 9.9 ± 3 nM.

Turning to `O=C1CCC(N2Cc3cc(C(=O)NCc4ccc(CN(CCO)CCc5ccccc5)cc4)ccc3C2=O)C(=O)N1` (stereo not shown) [KT-001], in the test on HL60 cells, the IC50 is less than 3.04 nM.

`NCCOc1cc(-c2cccc3cccnc23)cnc1N1CCC(CC(=O)Nc2ccc3c(c2)CN(C2CCC(=O)NC2=O)C3=O)CC1` (stereo not shown) [KT-032]: in the test on HL60 cells, the IC50 was 5620 nM.

Turning to `O=C1CCC(N2Cc3cc(NC(=O)CC4CCN(c5ncc(-c6cccc7cccnc67)cc5OCCO)CC4)ccc3C2=O)C(=O)N1` (stereo not shown) [KT-031], the IC50 in the test with HL60 cells was less than 0.34 nM.

Regarding `NCc1cc(-c2cccc3cccnc23)cnc1N1CCC(CC(=O)Nc2ccc3c(c2)CN(C2CCC(=O)NC2=O)C3=O)CC1` (stereo not shown) [KT-029], the IC50 in the test on HL60 cells was 0.57 ± 0.1 nM.

Take `O=C1CCC(N2Cc3cc(C(=O)NCc4ccc(CN(CCc5ccccc5)C(=O)NCCO)cc4)ccc3C2=O)C(=O)N1` (stereo not shown) [KT-015]: in the test on HL60 cells, the IC50 is 24.2 ± 10.1 nM.

Consider `CN(Cc1ccc(C(=O)NCc2ccc3c(c2)CN(C2CCC(=O)NC2=O)C3=O)cc1)CC(O)c1ccccc1` (stereo not shown) [KT-013], for which the IC50 with HL60 cells was 3.45 ± 0.52 nM.

Take `O=C1CCC(N2Cc3cc(C(=O)NCc4ccc(CN(CCc5ccccc5)C(=O)CCO)cc4)ccc3C2=O)C(=O)N1` (stereo not shown) [KT-033]: the IC50 in the test on HL60 cells was 6 ± 1.6 nM.

Regarding `O=C1CCC(N2Cc3cc(NC(=O)CC4CCN(c5ncc(-c6nccc7ccccc67)cc5CO)CC4)ccc3C2=O)C(=O)N1` (stereo not shown) [KT-030], the IC50 in the test on HL60 cells is less than 0.34 nM.

Regarding `O=C1CCC(N2Cc3cc(CNC(=O)c4ccc(CN5CCN(c6ccc(O)c(Cl)c6)CC5)cc4)ccc3C2=O)C(=O)N1` (stereo not shown) [KT-017], the IC50 in the test with HL60 cells was 10.5 ± 0.4 nM.
